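Each compound was tested at five concentrations against cells in 96-well plates for 48 hours. GI50 is the concentration that inhibits growth by half.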 Activity calls are given as the source filed them. No stated cut-off is given here; in the data, active = GI50 up to about 1.1 µM and inactive = higher.
How the values were obtained:
Assay in all cases: DTP human tumour cell line panel, 48 h
Malme-3M = system: Malme-3M
NCI-H522 = system: NCI-H522
UACC-62 = system: UACC-62
UO-31 = system: UO-31
HL-60 = system: HL-60
SN12C = system: SN12C
OVCAR-5 = system: OVCAR-5
NCI-H460 = system: NCI-H460
LOX IMVI = system: LOX IMVI
BT-549 = system: BT-549
SNB-75 = system: SNB-75
IGROV-1 = system: IGROV-1
EKVX = system: EKVX
COLO 205 = system: COLO 205
PC-3 = system: PC-3
SK-MEL-5 = system: SK-MEL-5
NCI/ADR-RES = system: NCI/ADR-RES
A549 = system: A549
SW-620 = system: SW-620
MOLT-4 = system: MOLT-4
SK-MEL-28 = system: SK-MEL-28
HCT-15 = system: HCT-15
HT-29 = system: HT-29
MDA-MB-231 = system: MDA-MB-231
DU-145 = system: DU-145
A498 = system: A498
KM12 = system: KM12
RXF 393 = system: RXF 393
ACHN = system: ACHN
UACC-257 = system: UACC-257
TK-10 = system: TK-10
M14 = system: M14
SF-295 = system: SF-295
SK-OV-3 = system: SK-OV-3
T47D = system: T47D
K562 = system: K562
MDA-N = system: MDA-N
MCF7 = system: MCF7
OVCAR-4 = system: OVCAR-4
RPMI-8226 = system: RPMI-8226
HCT-116 = system: HCT-116
OVCAR-3 = system: OVCAR-3
HOP-62 = system: HOP-62
Hs-578T = system: Hs-578T
SK-MEL-2 = system: SK-MEL-2
HOP-92 = system: HOP-92
HCC 2998 = system: HCC 2998
MDA-MB-435 = system: MDA-MB-435
U-251 = system: U-251
SNB-19 = system: SNB-19
SF-268 = system: SF-268
OVCAR-8 = system: OVCAR-8
SR = system: SR
NCI-H226 = system: NCI-H226
CCRF-CEM = system: CCRF-CEM
NCI-H23 = system: NCI-H23
786-0 = system: 786-0
CAKI-1 = system: CAKI-1
SF-539 = system: SF-539

Q: What does the source list for `CC(C)/C(Cl)=N/OC(=O)Nc1ccc(Cl)c(Cl)c1`?
A: GI50 (Malme-3M): 2160 nM (inactive); GI50 (NCI-H522): 1580 nM (inactive); GI50 (UACC-62): 13600 nM (inactive); GI50 (UO-31): 15300 nM (inactive); GI50 (HL-60): 1760 nM (inactive); GI50 (SN12C): 1910 nM (inactive); GI50 (OVCAR-5): 16000 nM (inactive); GI50 (NCI-H460): 17000 nM (inactive); GI50 (LOX IMVI): 1640 nM (inactive); GI50 (BT-549): 4840 nM (inactive); GI50 (SNB-75): 19700 nM (inactive); GI50 (IGROV-1): 11700 nM (inactive); GI50 (EKVX): 2000 nM (inactive); GI50 (COLO 205): 1830 nM (inactive); GI50 (PC-3): 16600 nM (inactive); GI50 (SK-MEL-5): 11600 nM (inactive); GI50 (NCI/ADR-RES): 16700 nM (inactive); GI50 (A549): 21400 nM (inactive); GI50 (SW-620): 2130 nM (inactive); GI50 (MOLT-4): 2490 nM (inactive); GI50 (SK-MEL-28): 2010 nM (inactive); GI50 (HCT-15): 2330 nM; GI50 (HT-29): 5480 nM (inactive); GI50 (MDA-MB-231): 14900 nM (inactive); GI50 (DU-145): 18100 nM (inactive); GI50 (A498): 18000 nM (inactive); GI50 (KM12): 17500 nM (inactive); GI50 (RXF 393): 13400 nM (inactive); GI50 (ACHN): 1990 nM (inactive); GI50 (UACC-257): 14600 nM (inactive); GI50 (TK-10): 5860 nM (inactive); GI50 (M14): 2450 nM (inactive); GI50 (SF-295): 17700 nM (inactive); GI50 (SK-OV-3): 17100 nM (inactive); GI50 (T47D): 4290 nM (inactive); GI50 (K562): 989 nM (active); GI50 (MDA-N): 3590 nM (inactive); GI50 (MCF7): 9930 nM (inactive); GI50 (OVCAR-4): 9310 nM (inactive); GI50 (RPMI-8226): 2360 nM (inactive); GI50 (HCT-116): 2180 nM (inactive); GI50 (OVCAR-3): 2580 nM (inactive); GI50 (HOP-62): 18200 nM (inactive); GI50 (Hs-578T): 23700 nM (inactive); GI50 (SK-MEL-2): 18400 nM (inactive); GI50 (HOP-92): 1720 nM (inactive); GI50 (HCC 2998): 14900 nM (inactive); GI50 (MDA-MB-435): 5680 nM (inactive); GI50 (U-251): 21200 nM (inactive); GI50 (SNB-19): 21500 nM (inactive); GI50 (SF-268): 18200 nM (inactive); GI50 (OVCAR-8): 18100 nM (inactive); GI50 (SR): 2490 nM (inactive); GI50 (NCI-H226): 18100 nM (inactive); GI50 (CCRF-CEM): 851 nM (active); GI50 (NCI-H23): 15300 nM (inactive); GI50 (786-0): 1960 nM (inactive); GI50 (CAKI-1): 1750 nM (inactive); GI50 (SF-539): 13600 nM (inactive)

Q: Which results are given for `COC(=O)c1cc2cc3c(c(O)c2c(=O)o1)O[C@@]1(Oc2c(O)c4c(c(O)c2[C@H]1OC1CC(OC)C(O)C(C)O1)C(=O)C=C(OC)C4=O)[C@H](O)C3` (stereo partly drawn)?
A: GI50 (Malme-3M): 1280 nM (inactive); GI50 (NCI-H522): 2090 nM (inactive); GI50 (UACC-62): 550 nM (active); GI50 (UO-31): 1370 nM (inactive); GI50 (HL-60): 719 nM (active); GI50 (SN12C): 1300 nM (inactive); GI50 (OVCAR-5): 1840 nM (inactive); GI50 (NCI-H460): 685 nM (active); GI50 (LOX IMVI): 492 nM (active); GI50 (BT-549): 1300 nM (inactive); GI50 (SNB-75): 652 nM (active); GI50 (IGROV-1): 705 nM (active); GI50 (EKVX): 1740 nM (inactive); GI50 (COLO 205): 1510 nM (inactive); GI50 (PC-3): 1360 nM (inactive); GI50 (SK-MEL-5): 966 nM (active); GI50 (NCI/ADR-RES): 4620 nM (inactive); GI50 (A549): 1050 nM (active); GI50 (SW-620): 1070 nM (active); GI50 (MOLT-4): 748 nM (active); GI50 (SK-MEL-28): 659 nM (active); GI50 (HCT-15): 908 nM; GI50 (HT-29): 1140 nM (inactive); GI50 (MDA-MB-231): 1270 nM (inactive); GI50 (DU-145): 822 nM (active); GI50 (A498): 789 nM (active); GI50 (KM12): 904 nM (active); GI50 (RXF 393): 726 nM (active); GI50 (ACHN): 855 nM (active); GI50 (UACC-257): 2000 nM (inactive); GI50 (TK-10): 2070 nM (inactive); GI50 (M14): 1170 nM (inactive); GI50 (SF-295): 724 nM (active); GI50 (SK-OV-3): 1850 nM (inactive); GI50 (T47D): 1500 nM (inactive); GI50 (K562): 841 nM (active); GI50 (MDA-N): 1220 nM (inactive); GI50 (MCF7): 1140 nM (inactive); GI50 (OVCAR-4): 604 nM (active); GI50 (RPMI-8226): 547 nM (active); GI50 (HCT-116): 735 nM (active); GI50 (OVCAR-3): 1450 nM (inactive); GI50 (HOP-62): 1140 nM (inactive); GI50 (Hs-578T): 1170 nM (inactive); GI50 (SK-MEL-2): 1530 nM (inactive); GI50 (HOP-92): 2410 nM (inactive); GI50 (HCC 2998): 1200 nM (inactive); GI50 (MDA-MB-435): 1090 nM (active); GI50 (U-251): 785 nM (active); GI50 (SNB-19): 1000 nM (active); GI50 (SF-268): 986 nM (active); GI50 (OVCAR-8): 1060 nM (active); GI50 (SR): 458 nM (active); GI50 (NCI-H226): 1320 nM (inactive); GI50 (CCRF-CEM): 889 nM (active); GI50 (NCI-H23): 940 nM (active); GI50 (786-0): 991 nM (active); GI50 (CAKI-1): 448 nM (active); GI50 (SF-539): 908 nM (active)
